The record followed here is patent publication US11155558B2, “Dual mode of action soluble guanylate cyclase activators and phosphodiesterase inhibitors and uses thereof” (TOPADUR PHARMA AG, priority 2017, dated 2021).

For data set [1], the target named is PDE5 enzyme isolated from human platelets (Homo sapiens (Human), UniProt O76074). Put plainly: PDE5 assay (Example 109), formation of 5′GMP from cGMP, SPA.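 For all read-outs here: tritiated 5′GMP counted by scintillation after SPA bead capture, enzyme reaction run 60 min at 22 °C, basal control is the mixture without enzyme.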 Particulars: for % inhibition at 5.0E−09 M: percent inhibition of control enzyme activity at 5.0E−09 M, assay of Example 109.
Procedure: Evaluation of the effects of compounds of the present invention on the activity of the human phosphodiesterase-5 quantified by measuring the formation of 5′GMP from cGMP using PDE5 enzyme isolated from human platelets.
Thereafter, the reaction is initiated by addition of the enzyme and the mixture is incubated for 60 min at 22° C.
For basal control measurements, the enzyme is omitted from the reaction mixture. Following incubation SPA beads are added. After 20 min at 22° C. under shaking, the amount of [3H]5′GMP is quantified with a scintillation counter (Topcount, Packard).
The standard inhibitory reference compound is dipyridamole, which is tested in each experiment at several concentrations to obtain an inhibition curve from which its IC50 value is calculated.
Data set [2] can be described thus: Measurements of human plasma protein binding. It counts as in vitro ADME. The note with it: for recovery: human. The protocol:
An aliquot of 200 μL of human plasma containing test compound was spiked into donor well (red chamber) of the insert. 350 μL of PBS was spiked into receiver well (white chamber) of the insert.
The samples were matrix equilibrated with opposite matrix (25 μL of plasma/buffer sample was matched with 25 μL of blank buffer/plasma). Matrix matched samples were precipitated with 200 μL of acetonitrile containing internal standard. Samples were vortexed at 1000 rpm for 5 min and centrifuged at 4000 rpm for 10 min. Supernatant was separated, diluted 2 fold with water and analysed in LC-MS/MS. TO control samples were processed immediately after the preparation of plasma working stock solutions. These samples serves as a measure for calculating the percentage recovery of test compounds.

A word on the IC50: it is the point on the concentration scale where inhibition reaches its midpoint. A high value points to weaker potency in that assay. A word on the % inhibition: it is how much of the control response was suppressed. A low value points to a response near the control. What is called fraction unbound is free concentration divided by total concentration. Read a high fraction unbound as weak binding.

Turning to `CCCOc1ccc(S(=O)(=O)N2CCN(CCO[N+](=O)[O-])CC2)cc1-c1nc2c(CCC)c(/C=N/O)n(CC)c2c(=O)[nH]1` [Compound 1a, (E)-2-(4-((3-(5-ethyl-6-((hydroxyimino)methyl)-4-oxo-7-propyl-4,5-dihydro-3H-pyrrolo[3,2-d]pyrimidin-2-yl)-4-propoxyphenyl)sulfonyl)piperazin-1-yl)ethyl nitrate], in data set [1], the IC50 was found to be 12 nM and the “% inhibition at 5.0E−09 M” value came to 20.7%.
Taken in the same sequence, the figures for `CCCOc1ccc(S(=O)(=O)N2CCC(CCCO[N+](=O)[O-])CC2)cc1-c1nc2c(CCC)cn(CC)c2c(=O)[nH]1` [Compound 1d, 3-(1-((3-(5-ethyl-4-oxo-7-propyl-4,5-dihydro-3H-pyrrolo[3,2-d]pyrimidin-2-yl)-4-propoxyphenyl)sulfonyl)piperidin-4-yl)propyl nitrate] were greater than 10 nM and 13.4%.
Taken in the same sequence, the figures for `CCCc1c(/C=N/O)n(C)c2c(=O)[nH]c(-c3cc(S(=O)(=O)N4CCC(CCO[N+](=O)[O-])CC4)ccc3OCC)nc12` [Compound 2a, (E)-2-(1-((4-ethoxy-3-(6-((hydroxyimino)methyl)-5-methyl-4-oxo-7-propyl-4,5-dihydro-3H-pyrrolo[3,2-d]pyrimidin-2-yl)phenyl)sulfonyl)piperidin-4-yl)ethyl nitrate] were 2 nM and 13.4%.
Taken in the same sequence, the figures for `CCCc1cn(C)c2c(=O)[nH]c(-c3cc(S(=O)(=O)N4CCN(CCCO[N+](=O)[O-])CC4)ccc3OCC)nc12` [Compound 2b, 3-(4-((4-ethoxy-3-(5-methyl-4-oxo-7-propyl-4,5-dihydro-3H-pyrrolo[3,2-d]pyrimidin-2-yl)phenyl)sulfonyl)piperazin-1-yl)propyl nitrate] were 2 nM and 18.2%.
Take `CCCc1cn(C)c2c(=O)[nH]c(-c3cc(S(=O)(=O)N4CCC(CCO[N+](=O)[O-])CC4)ccc3OCC)nc12` [Compound 2c, 2-(1-((4-ethoxy-3-(5-methyl-4-oxo-7-propyl-4,5-dihydro-3H-pyrrolo[3,2-d]pyrimidin-2-yl)phenyl)sulfonyl)piperidin-4-yl)ethyl nitrate]: in data set [2], the “% Bound in Plasma” value is 99.65%, the fraction unbound worked out at 0.0035 and the recovery is 105%.
In the case of `CCCc1cn(C)c2c(=O)[nH]c(-c3cc(S(=O)(=O)N4CCN(CCO[N+](=O)[O-])CC4)ccc3OCC)nc12` [Compound 2d, 2-(4-((4-ethoxy-3-(5-methyl-4-oxo-7-propyl-4,5-dihydro-3H-pyrrolo[3,2-d]pyrimidin-2-yl)phenyl)sulfonyl)piperazin-1-yl)ethyl nitrate], in data set [1], it took 1.2 nM to reach half-maximal inhibition (IC50) and the “% inhibition at 5.0E−09 M” value stood at 57.8%.
In the case of `CCCOc1ccc(S(=O)(=O)N2CCC(CCO[N+](=O)[O-])CC2)cc1-c1nc2c(CCC)cn(C)c2c(=O)[nH]1` [Compound 3a, 2-(1-((3-(5-methyl-4-oxo-7-propyl-4,5-dihydro-3H-pyrrolo[3,2-d]pyrimidin-2-yl)-4-propoxyphenyl)sulfonyl)piperidin-4-yl)ethyl nitrate], in data set [1], the “% inhibition at 5.0E−09 M” value is given as 6.5%.
Consider `CCCOc1ccc(S(=O)(=O)N2CCC(CCO)CC2)cc1-c1nc2c(CCC)cn(CC)c2c(=O)[nH]1` [Compound 5, 5-ethyl-2-(5-((4-(2-hydroxyethyl)piperidin-1-yl)sulfonyl)-2-propoxyphenyl)-7-propyl-3,5-dihydro-4H-pyrrolo[3,2-d]pyrimidin-4-one], for which, in data set [2], the “% Bound in Plasma” value worked out at 99.87%, the fraction unbound was 0.0013 and the recovery came out at 102%. In data set [1], inhibition was half-maximal at 0.29 nM (IC50) and the “% inhibition at 5.0E−09 M” value came out at 74.4%. Besides, the “PDE5 inhibition (in words)” value in data set [1] (human cGMP-specific PDE5, refers to Table 1) was “much more potent PDE5 inhibitor”.
On to `CCCOc1ccc(S(=O)(=O)N2CCC(CCO)CC2)cc1-c1nc2c(CCC)c(CO)n(CC)c2c(=O)[nH]1` [Compound 6, 5-ethyl-2-(5-((4-(2-hydroxyethyl)piperidin-1-yl)sulfonyl)-2-propoxyphenyl)-6-(hydroxymethyl)-7-propyl-3,5-dihydro-4H-pyrrolo[3,2-d]pyrimidin-4-one], for which, in data set [1], the half-maximal inhibitory concentration (IC50) amounted to 2.4 nM.
As to `CCCOc1ccc(S(=O)(=O)N2CCC(CCO)CC2)cc1-c1nc2c(CCC)c(/C=N/O)n(CC)c2c(=O)[nH]1` [Compound 8, (E)-5-ethyl-2-(5-((4-(2-hydroxyethyl)piperidin-1-yl)sulfonyl)-2-propoxyphenyl)-4-oxo-7-propyl-4,5-dihydro-3H-pyrrolo[3,2-d]pyrimidine-6-carbaldehyde oxime], in data set [1], inhibition was half-maximal at 2.7 nM (IC50) and the “% inhibition at 5.0E−09 M” value is on record as 71.2%.
`CCCOc1ccc(S(=O)(=O)N2CCC(CCCO)CC2)cc1-c1nc2c(CCC)cn(CC)c2c(=O)[nH]1` [Compound 15, 5-ethyl-2-(5-((4-(3-hydroxypropyl)piperidin-1-yl)sulfonyl)-2-propoxyphenyl)-7-propyl-3,5-dihydro-4H-pyrrolo[3,2-d]pyrimidin-4-one]: in data set [1], half-maximal inhibition (IC50) required 1.8 nM and the “% inhibition at 5.0E−09 M” value is reported as 50.3%.
As for `CCCc1c(/C=N/O)n(C)c2c(=O)[nH]c(-c3cc(S(=O)(=O)N4CCC(CCO)CC4)ccc3OCC)nc12` [Compound 17, (E)-2-(2-ethoxy-5-((4-(2-hydroxyethyl)piperidin-1-yl)sulfonyl)phenyl)-5-methyl-4-oxo-7-propyl-4,5-dihydro-3H-pyrrolo[3,2-d]pyrimidine-6-carbaldehyde oxime], the “% inhibition at 5.0E−09 M” value in data set [1] is reported as 33.2%.
The same measure, in the same setting: in the case of `CCCc1cn(C)c2c(=O)[nH]c(-c3cc(S(=O)(=O)N4CCN(CCO)CC4)ccc3OCC)nc12` [Compound 20, 2-(2-ethoxy-5-((4-(2-hydroxyethyl)piperazin-1-yl)sulfonyl)phenyl)-5-methyl-7-propyl-3,5-dihydro-4H-pyrrolo[3,2-d]pyrimidin-4-one] it was 41.1%; in that of `CCCc1cn(C)c2c(=O)[nH]c(-c3cc(S(=O)(=O)N4CCN(CCCO)CC4)ccc3OCC)nc12` [Compound 23, 2-(2-ethoxy-5-((4-(3-hydroxypropyl)piperazin-1-yl)sulfonyl)phenyl)-5-methyl-7-propyl-3,5-dihydro-4H-pyrrolo[3,2-d]pyrimidin-4-one], 36.7%.
On to `CCCOc1ccc(S(=O)(=O)N2CCC(CCO)CC2)cc1-c1nc2c(CCC)cn(C)c2c(=O)[nH]1` [Compound 29, 2-(5-((4-(2-hydroxyethyl)piperidin-1-yl)sulfonyl)-2-propoxyphenyl)-5-methyl-7-propyl-3,5-dihydro-4H-pyrrolo[3,2-d]pyrimidin-4-one], for which, in data set [1], the “% inhibition at 5.0E−09 M” value stood at 46.4%.
On the same count and under the same terms, in the case of `CCCOc1ccc(S(=O)(=O)N2CCN(CCO)CC2)cc1-c1nc2c(CCC)cn(C)c2c(=O)[nH]1` [Compound 32, 2-(5-((4-(2-hydroxyethyl)piperazin-1-yl)sulfonyl)-2-propoxyphenyl)-5-methyl-7-propyl-3,5-dihydro-4H-pyrrolo[3,2-d]pyrimidin-4-one] it was 53.4%.
As to `CC(=O)CC(c1ccccc1)c1c(O)c2ccccc2oc1=O` (stereo not drawn) [Warfarin, reference compound], in data set [2], the “% Bound in Plasma” value is 97.28%, the fraction unbound amounted to 0.0272 and the recovery was found to be 101%.
Taken in the same sequence, the figures for `CCCc1nn(C)c2c(=O)[nH]c(-c3cc(S(=O)(=O)N4CCN(C)CC4)ccc3OCC)nc12` [sildenafil, reference compound] were 96.41%, 0.0359 and 104%.
